Where two headings read alike, the source gives them in different places.

The target in this experiment is T1, human isoforms of GABAA (α3ß2γ2) receptors (Homo sapiens, UniProt P18507+P34903).
T1 construct: expressed in transfected cells
The experiment can be described thus: Potentiation of GABA-evoked currents at GABAA (α3β2γ2) receptors, automated patch-clamp (QPatch), Example B1. The format is cell-based. The note with it: for Emax: Emax of potentiation, read-out: Max %. The procedure:
The ability of compounds exemplified above to potentiate the effect of GABA on GABAA receptors (α3β2γ2) was determined using one or more of the methods described below.
Ltk cells stably expressing the human isoforms of GABAA (α3ß2γ2) receptors were used together with submaximal GABA concentrations to investigate the modulatory effects of the test items. Cells were incubated at 37° C. in a humidified atmosphere with 5% CO2 (rel. humidity about 95%). The cells were continuously maintained in and passaged in sterile culture flasks containing a 1:1 mixture of Dulbecco's modified eagle medium and nutrient mixture D-MEM/F-12 (1×, liquid, with L-Glutamine), supplemented with 10% fetal bovine serum and 1.0% Penicillin/Streptomycin solution. The complete medium as indicated above was supplemented with neomycin. In general, cells were passaged at a confluence of about 80 to 90%. For electrophysiological measurements cells were harvested at a confluence of about 80 to 90% from sterile culture flasks containing culture complete medium. Cells were transferred as suspension in PBS to the QPatch 16X or QPatch HTX system to the centrifuge/washer directly. Expression of GABA receptor was induced by adding Dexamethasone to the cells for 24 to 48 h before experimentation.
Modulatory effects of the compounds of this disclosure were investigated using cells stably transfected with GABA-activated channels of the GABAA (α3ß2γ2) subtype together with submaximal GABA concentrations. Expression of GABA receptor were induced by adding Dexamethasone to the cells for 24 to 48 h before experimentation. In general, cells were passaged at a confluence of about 80 to 90%. For electrophysiological measurements cells were harvested at a confluence of about 80 to 90% from sterile culture flasks containing culture complete medium. Cells were transferred as suspension in PBS to the QPatch 16X or QPatch HTX system to the centrifuge/washer directly. Cells were incubated at 37° C. in a humidified atmosphere with 5% CO2 (rel. humidity about 95%). The cells were continuously maintained in and passaged in sterile culture flasks containing a 1:1 mixture of Dulbecco's modified eagle medium and nutrient mixture D-MEM/F-12 (1×, liquid, with L-Glutamine), supplemented with 10% foetal bovine serum and 1.0% Penicillin/Streptomycin solution and neomycin. The 1× bath solution was made at least every 5 days out of a sterile 10× bath solution, which had been prepared prior to the experimental start of the present study and stored at 1° C. to 9° C. The final bath solution included Sodium Chloride 137 mM, Potassium Chloride 4 mM, Calcium Chloride 1.8 mM, Magnesium Chloride 1 mM, HEPES 10 mM, D-Glucose 10 mM, pH (NaOH) 7.4. The 1× intracellular solution was thawed every day and includes Potassium Chloride 130 mM, Magnesium Chloride 1 mM, Mg-ATP 5 mM, HEPES 10 mM, EGTA 5 Mm, pH (KOH) 7.2. Automated patch-clamping: Cells were transferred as suspension in serum-free medium to the QPatch HTX system and kept in the cell storage tank during experiments. All solutions applied to cells including the intracellular solution were maintained at room temperature (19° C. to 30° C.). After formation of a Gigaohm seal between the patch electrodes and transfected individual Ltk cells were ruptured to assure electrical access to the cell interior (whole-cell patch-configuration). Inward currents were measured upon application of 2.0 μM GABA to patch-clamped cells for 4 s. During the entire experiment the cells were voltage-clamped at a holding potential of −80 mV. For the analysis of test items, GABAA receptors were stimulated by 2.0 μM GABA and test item combinations described below. Thirty-second prewash steps with test items was performed in between two agonist applications. […]
Background: In patch-clamp work, channel activity is measured electrically.

[1] abbreviates: Ltk cells expressing GABAA α3β2γ2, 2.0 μM GABA, whole-cell, holding potential −80 mV.

T1 sequence (P34903 29-492): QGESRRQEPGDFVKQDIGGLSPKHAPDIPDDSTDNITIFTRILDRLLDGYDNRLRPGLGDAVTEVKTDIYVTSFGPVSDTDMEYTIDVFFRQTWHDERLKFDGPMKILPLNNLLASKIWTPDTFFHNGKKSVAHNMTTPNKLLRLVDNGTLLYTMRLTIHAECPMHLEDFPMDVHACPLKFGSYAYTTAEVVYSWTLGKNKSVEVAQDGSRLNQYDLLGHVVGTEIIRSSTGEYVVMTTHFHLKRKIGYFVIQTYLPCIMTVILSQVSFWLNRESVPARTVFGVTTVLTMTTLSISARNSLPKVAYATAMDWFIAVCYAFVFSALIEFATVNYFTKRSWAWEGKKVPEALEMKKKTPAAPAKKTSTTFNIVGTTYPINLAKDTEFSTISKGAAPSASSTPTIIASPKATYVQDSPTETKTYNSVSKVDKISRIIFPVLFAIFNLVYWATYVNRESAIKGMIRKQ
T1 sequence (P47870 25-512 partner limits assumed): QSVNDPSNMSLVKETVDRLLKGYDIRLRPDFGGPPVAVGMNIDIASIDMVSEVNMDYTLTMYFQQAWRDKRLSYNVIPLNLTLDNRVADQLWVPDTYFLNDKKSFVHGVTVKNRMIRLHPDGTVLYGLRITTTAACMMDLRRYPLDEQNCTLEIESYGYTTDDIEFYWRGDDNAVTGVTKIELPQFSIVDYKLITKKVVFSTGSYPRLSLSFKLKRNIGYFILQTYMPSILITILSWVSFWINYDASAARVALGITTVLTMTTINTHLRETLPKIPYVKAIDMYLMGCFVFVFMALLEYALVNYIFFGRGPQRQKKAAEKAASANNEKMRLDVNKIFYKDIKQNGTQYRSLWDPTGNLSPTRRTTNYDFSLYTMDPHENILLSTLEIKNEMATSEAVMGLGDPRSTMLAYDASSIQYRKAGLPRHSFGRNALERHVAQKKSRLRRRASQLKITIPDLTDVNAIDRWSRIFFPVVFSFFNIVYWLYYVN
T1 sequence (P18507 40-475): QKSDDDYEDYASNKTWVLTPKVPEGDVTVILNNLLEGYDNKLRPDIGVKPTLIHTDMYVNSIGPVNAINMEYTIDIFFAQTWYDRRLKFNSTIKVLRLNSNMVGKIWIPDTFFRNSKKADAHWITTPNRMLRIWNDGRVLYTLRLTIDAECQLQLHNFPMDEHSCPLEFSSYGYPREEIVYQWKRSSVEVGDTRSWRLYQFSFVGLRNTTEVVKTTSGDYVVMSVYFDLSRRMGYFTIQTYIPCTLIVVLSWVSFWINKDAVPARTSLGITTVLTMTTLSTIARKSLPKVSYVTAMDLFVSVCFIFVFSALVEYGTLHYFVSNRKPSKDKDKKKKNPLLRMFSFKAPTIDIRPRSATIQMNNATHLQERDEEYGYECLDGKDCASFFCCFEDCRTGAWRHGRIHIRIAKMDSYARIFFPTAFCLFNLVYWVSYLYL

Consider `CC1N=C(c2ccccc2F)c2cc(Cl)ccc2-n2cc(C(=O)O)nc21` (racemic) [Compound 101, 12-Chloro-9-(2-fluorophenyl)-7-methyl-2,5,8-triazatricyclo[8.4.0.0^2,6] tetradeca-1 (10),3,5,8,11,13-hexaene-4-carboxylic acid], for which the concentration for a half-maximal effect (EC50) (in general, the concentration at which the effect is half-maximal) was less than 0.05 µM. Besides, under setting [1], the Emax was more than 100%.
On to `CC(C)CC1N=C(c2ccccc2F)c2cc(Cl)ccc2-n2cc(C(=O)O)nc21` (stereo not shown) [Compound 102, 8-chloro-6-(2-fluorophenyl)-4-isobutyl-4H-imidazo[1,2-a][1,4]benzodiazepine-2-carboxylic acid], for which, under setting [1], the Emax fell in the range of 50 to 100%. In addition, the EC50 (Ltk cells expressing GABAA α3β2γ2, 2.0 μM GABA, whole-cell, holding potential −80 mV, read-out: EC50) is more than 0.1 µM.
Consider `O=C(O)c1cn2c(n1)CN=C(c1ccccc1F)c1cc(Cl)c(F)cc1-2` [Compound 201, 8-chloro-9-fluoro-6-(2-fluorophenyl)-4H-imidazo[1,2-a][1,4]benzodiazepine-2-carboxylic acid], for which the EC50 is less than 0.05 µM. The Emax under setting [1] was more than 100%.
Take `C[N+](C)(C)Cc1cn2c(n1)CN=C(c1ccccc1F)c1cc(Cl)ccc1-2` [Compound 202, {[12-chloro-9-(2-fluorophenyl)-2,5,8-triazatricyclo[8.4.0.0^2,6]tetradeca-1 (10),3,5,8,11,13-hexaen-4-yl]methyl}trimethylazanium chloride]: the EC50 is less than 0.05 µM. In addition, the Emax under setting [1] lay in the range of 50 to 100%.
On to `O=C(O)c1cn2c(n1)CN=C(c1ccccc1F)c1cc(Cl)cc(F)c1-2` [Compound 203, 12-Chloro-14-fluoro-9-(2-fluorophenyl)-2,5,8-triazatricyclo[8.4.0.0^2,6] tetradeca-1 (10),3,5,8,11,13-hexaene-4-carboxylic acid], for which the EC50 lay within 0.05 to 0.1 µM. Also, under setting [1], the Emax is 50 to 100%.
For the molecule `Cc1ccccc1C1=NCc2nc(C(=O)O)cn2-c2ccc(Cl)cc21` [Compound 204, 8-chloro-6-(o-tolyl)-4H-imidazo[1,2-a][1,4]benzodiazepine-2-carboxylic acid], the EC50 is less than 0.05 µM. Further, under setting [1], the Emax was more than 100%.
As to `COc1cc2c(cc1Cl)C(c1ccccc1F)=NCc1nc(C(=O)O)cn1-2` [Compound 205, 8-chloro-6-(2-fluorophenyl)-9-methoxy-4H-imidazo[1,2-a][1,4]benzodiazepine-2-carboxylic acid], the EC50 was less than 0.05 µM. Besides, the Emax under setting [1] is more than 100%.
For `O=C(O)c1cn2c(n1)CN=C(c1ccccc1Br)c1cc(Cl)ccc1-2` [Compound 206, 6-(2-bromophenyl)-8-chloro-4H-imidazo[1,2-a][1,4]benzodiazepine-2-carboxylic acid], the half-maximal effective concentration (EC50) was less than 0.05 µM. Further, the Emax under setting [1] lay in the range of 50 to 100%.
The corresponding values for `O=C(O)c1cn2c(n1)CN=C(c1ccccc1F)c1cc(Br)ccc1-2` [Compound 207, 8-bromo-6-(2-fluorophenyl)-4H-imidazo[1,2-a][1,4]benzodiazepine-2-carboxylic acid] are less than 0.05 µM and more than 100%.
On the same counts, the results for `CS(=N)(=O)CCNC(=O)c1cn2c(n1)CN=C(c1ccccc1F)c1cc(Cl)ccc1-2` (stereo not shown) [Compound 208, 8-chloro-6-(2-fluorophenyl)-N-[2-(methylsulfonimidoyl)ethyl]-4H-imidazo[1,2-a][1,4]benzodiazepine-2-carboxamide] are less than 0.05 µM and 50 to 100%.
For `CP(C)(=O)CCCNC(=O)c1cn2c(n1)CN=C(c1ccccc1F)c1cc(Cl)ccc1-2` [Compound 209, 8-chloro-N-(3-dimethylphosphorylpropyl)-6-(2-fluorophenyl)-4H-imidazo[1,2-a][1,4]benzodiazepine-2-carboxamide], the EC50 is less than 0.05 µM. Further, the Emax under setting [1] lay in the range of 50 to 100%.
On to `NCCNC(=O)c1cn2c(n1)CN=C(c1ccccc1F)c1cc(Cl)ccc1-2` [Compound 210, N-(2-aminoethyl)-8-chloro-6-(2-fluorophenyl)-4H-imidazo[1,2-a][1,4]benzodiazepine-2-carboxamide], for which the 50% effective concentration (EC50) is less than 0.05 µM. The Emax under setting [1] was more than 100%.
For `COCCOCCOCCOCCNC(=O)c1cn2c(n1)CN=C(c1ccccc1F)c1cc(Cl)ccc1-2` [Compound 211, 8-chloro-6-(2-fluorophenyl)-N-[2-[2-[2-(2-methoxyethoxy)ethoxy]ethoxy]ethyl]-4H-imidazo[1,2-a][1,4]benzodiazepine-2-carboxamide], the concentration for a half-maximal effect (EC50) is 0.05 to 0.1 µM. The Emax under setting [1] was more than 100%.
On the same counts, the results for `O=C(O)c1nc2n(c1C1CC1)-c1ccc(Cl)cc1C(c1ccccc1F)=NC2` [Compound 212, 8-chloro-1-cyclopropyl-6-(2-fluorophenyl)-4H-imidazo[1,2-a][1,4]benzodiazepine-2-carboxylic acid] are more than 0.1 µM and more than 100%.
Take `Cc1c(C(=O)O)nc2n1-c1ccc(Cl)cc1C(c1ccccc1F)=NC2` [Compound 213, 8-chloro-6-(2-fluorophenyl)-1-methyl-4H-imidazo[1,2-a][1,4]benzodiazepine-2-carboxylic acid]: the EC50 is less than 0.05 µM. For the same molecule, under setting [1], the Emax was more than 100%.
On the same counts, the results for `O=C(O)c1cn2c(n1)CN=C(c1c(F)cccc1F)c1cc(Cl)ccc1-2` [Compound 214, 8-chloro-6-(2,6-difluorophenyl)-4H-imidazo[1,2-a][1,4]benzodiazepine-2-carboxylic acid] are less than 0.05 µM and 50 to 100%.
As to `O=C(O)c1cn2c(n1)CN=C(c1cccc(F)c1F)c1cc(Cl)ccc1-2` [Compound 215, 8-chloro-6-(2,3-difluorophenyl)-4H-imidazo[1,2-a][1,4]benzodiazepine-2-carboxylic acid], the concentration giving a half-maximal response (EC50) was less than 0.05 µM. Besides, the Emax under setting [1] is more than 100%.
As to `O=C(O)c1cn2c(n1)CN=C(c1ccc(F)cc1F)c1cc(Cl)ccc1-2` [Compound 216, 8-chloro-6-(2,4-difluorophenyl)-4H-imidazo[1,2-a][1,4]benzodiazepine-2-carboxylic acid], the Emax under setting [1] is less than 50%.
For the molecule `CCc1c(C(=O)O)nc2n1-c1ccc(Cl)cc1C(c1ccccc1F)=NC2` [Compound 217, 8-chloro-1-ethyl-6-(2-fluorophenyl)-4H-imidazo[1,2-a][1,4]benzodiazepine-2-carboxylic acid], the EC50 was less than 0.05 µM. Also, the Emax under setting [1] was more than 100%.
On to `O=C(O)c1cn2c(n1)CN=C(c1cccc(F)c1)c1cc(Cl)ccc1-2` [Compound 218, 8-chloro-6-(3-fluorophenyl)-4H-imidazo[1,2-a][1,4]benzodiazepine-2-carboxylic acid], for which the EC50 was more than 0.1 µM. For the same molecule, the Emax under setting [1] was more than 100%.
Take `O=C(O)c1cn2c(n1)CN=C(c1ccc(F)cc1)c1cc(Cl)ccc1-2` [Compound 219, 8-chloro-6-(4-fluorophenyl)-4H-imidazo[1,2-a][1,4]benzodiazepine-2-carboxylic acid]: under setting [1], the Emax was in the range of 50 to 100%.
Turning to `O=C(O)c1cn2c(n1)CN=C(c1ccccc1Cl)c1cc(Cl)ccc1-2` [Compound 220, 8-chloro-6-(2-chlorophenyl)-4H-imidazo[1,2-a][1,4]benzodiazepine-2-carboxylic acid], the EC50 was less than 0.05 µM. The Emax under setting [1] was more than 100%.
Turning to `O=C(O)c1cn2c(n1)CN=C(c1ccccc1F)c1cc(F)ccc1-2` [Compound 221, 8-fluoro-6-(2-fluorophenyl)-4H-imidazo[1,2-a][1,4]benzodiazepine-2-carboxylic acid], the EC50 lay in the range of 0.05 to 0.1 µM. Under setting [1], the Emax is 50 to 100%.
Consider `O=C(O)c1cn2c(n1)CN=C(c1ccccc1F)c1cc(C3CC3)ccc1-2` [Compound 222, 8-cyclopropyl-6-(2-fluorophenyl)-4H-imidazo[1,2-a][1,4]benzodiazepine-2-carboxylic acid], for which the EC50 is 0.05 to 0.1 µM. Under setting [1], the Emax was more than 100%.

The record behind these values is patent US20260042763A1, “PE[…] POSITIVE […] THE TREATMENT OF IRRITABLE BOWEL SYNDROME AND OTHER AILMENTS OF THE PERIPHERAL NERVOUS SYSTEM” (The Johns Hopkins University, priority 2022, published 2026).
